Measured values as given in US10363253B2, “Combination products for the treatment of RSV” (priority 2016, dated 2019).
Read-outs that look alike come from different tables or passages of the source.

System: rgRSV224, an engineered RSV strain that encodes for eGFP
Format: cell-based
Conditions: A = 0
Procedure: To evaluate their combined antiviral effect against RSV, in vitro combination studies were performed with JNJ-53718678 (“compound A”) and various compounds with different mechanisms-of-action (“compound B”). In short, 9 concentrations of Compound A were combined with 6 or 7 concentrations of a certain compound B. HeLa cells were infected with rgRSV224, an engineered RSV strain that encodes for eGFP (Hallak L K, Spillmann D, Collins P L, Peeples M E. Glycosaminoglycan sulfation requirements for respiratory syncytial virus infection; Journal of Virology (2000), 74(22), 10508-13), in the presence of various concentrations of compound A and compound B individually or in combination.
Compound stock solutions were 5 mM in 100% DMSO, with following exceptions: ribavirin, 20 mM; A 60444, 10 mM; CR9501, 141 μM in PBS; palivizumab, 156 μM in PBS; MDT 637, 100 μM in methanol. First, the compounds were serially diluted in 3-fold dilution series in DMSO; CR9501 and palivizumab were serially diluted in cell culture medium, and MDT 637 in methanol. The concentration series were diluted 100-fold in cell culture medium to achieve a combination matrix. 10 μL of these compound solutions were transferred to black 384-well clear-bottom tissue-culture treated plates. Next, 10 μL of a […] HeLa cell suspension was added to achieve 3000 cells per well. Finally, 10 μL of diluted virus stock was added to achieve an MOI of 1. The final DMSO concentration of all wells was 0.5% DMSO, except for the MDT 637 experiment where it was 0.25% DMSO+0.25% methanol. Each combination of compound concentrations was tested in 4 replicates on 3 separate plates, resulting in a total of 12 replicates. The plates were incubated for 3 days at 37° C. in a humidified atmosphere at 5% CO2. The GFP signal was measured with PerkinElmer EnVision apparatus using a 405 nm filter.
The method of Harbron (Statistics in Medicine, 2010, DOI:10.1002/sim3916) was used to assess synergy. Using the Loewe definition, two compounds are characterized as being additive, synergistic or antagonistic by:
where d1 and d2 represent the doses of the two compounds that in combination produce an effect y, and Dy,1 and Dy,2 represent the doses of the two compounds that produce the same effect, y, when administered as a monotherapy. A 3PL model (3-parameter log-logistic model) was used for the monotherapy dose-response data, where the baseline response was fixed at one.
Following Harbron's approach, the following models were fitted to the data: • “Additive”: assuming no interaction between the two compounds • “Uniform”: assuming a constant interaction index τ across all dose combinations • “Linear A”: assuming the interaction index linearly depends on the log 10 dose of compound A: z=τ1+τ2 log 10(dA) • “Separate A”: assuming the interaction index τ takes a separate value for each dose of compound A The latter two models were also considered for compound B: • “Linear B”: assuming the interaction index linearly τ depends on the log 10 dose of compound B: τ=τ1+τ2 log 10(dB) • “Separate B”: assuming the interaction index τ takes a separate value for each dose of compound B

Structure (SMILES): O=C(NC1CC1)c1cc2c(s1)-c1ccccc1N(C(=O)c1ccc(NC(=O)c3cccnc3N3CCC4(CC3)COC4)cc1)CC2 [AZ-27, N-cyclopropyl-5,6-dihydro-6-[4-[[[2-(2-oxa-7-azaspiro [3.5]non-7-yl)-3-pyridinyl]carbonyl]-amino]benzoyl]-4H-thieno [3,2-d][1]benzazepine-2-carboxamide, reference compound]
- normalized GFP signal (B (AZ-27) = 17): 1.03
- normalized GFP signal (B (AZ-27) = 51): 1.00
- normalized GFP signal (B (AZ-27) = 154): 0.53
- normalized GFP signal (B (AZ-27) = 463): 0.07
- normalized GFP signal (B (AZ-27) = 1389): 0.01
- normalized GFP signal (B (AZ-27) = 4167): 0.00

Structure (SMILES): COc1ccc(CCNCCCN2C(=O)c3c(cc(N)c4nc(-c5ccc(C)c([N+](=O)[O-])c5)[nH]c34)C(C)(C)C2=O)cc1OC [CAS 851658-10-1, 4-amino-8-[3-[[2-(3,4-dimethoxyphenyl)ethyl]amino]propyl]-6,6-dimethyl-2-(4-methyl-3-nitrophenyl)-3H-imidazo[4,5-h]isoquinoline-7,9(6H,8H)-dione, reference compound]
- normalized GFP signal (B (CAS 851658-10-1) = 1.9): 0.99
- normalized GFP signal (B (CAS 851658-10-1) = 5.7): 0.97
- normalized GFP signal (B (CAS 851658-10-1) = 17): 0.89
- normalized GFP signal (B (CAS 851658-10-1) = 51): 0.74
- normalized GFP signal (B (CAS 851658-10-1) = 154): 0.38
- normalized GFP signal (B (CAS 851658-10-1) = 463): 0.05
- normalized GFP signal (B (CAS 851658-10-1) = 1389): 0.01
